# Experiments:
# [1] = test system: aortic root lesions of WD-fed Ldlr-/- mice; test: Aortic root atherosclerotic lesion analysis and in situ efferocytosis in WD-fed Ldlr-/- mice; format: in vivo, mouse; conditions: for total necrotic area: aortic root; for collagen content of the lesions / fibrous-cap thickness: picrosirius red; for collagen content of the lesions: percent of total lesion area; for fibrous-cap thickness: ratio of cap thickness to lesion size
# Experimental: (§1) Eight-week-old male Ldlr^-/- mice on the C57BL/6J background were purchased from Jackson Laboratory (stock # 002207) and fed a Western-type Diet (WD) for 16 weeks (Envigo, TD.88137; 21.2% fat, 0.2% cholesterol, 48.5% carbohydrate, and 17.3% protein by weight). Between weeks 10–16 of feeding, the WD of the experimental group was supplemented with TBX-1 or TBX-2 (600 mg/kg diet) to achieve a dose of ∼30 mg/kg body weight per day, whereas control mice remained on regular WD. The study included four separate cohorts, each comprised of 5 to 10 mice per group. The mice were randomly assigned to the different cohorts. Fasting blood glucose was measured in mice that were fasted for 5 h, with free access to water, using a glucose meter. Insulin tolerance test was performed in 5 h-fasted mice by assaying blood glucose at various times after injection of insulin (0.7 IU/kg body wt i.p.). Plasma insulin levels were measured in mice that were fasted for 5 h using an ultra-sensitive mouse insulin ELISA kit (Crystal Chem). At the time of harvest, mice were euthanized using isoflurane, and blood was then removed by left ventricular puncture. Animals were provided with food and water ad libitum and housed in standard cages at 22°C in a 12-12h light-dark cycle in a barrier facility. The Columbia University IACUC provided ethical approval for these studies, and procedures were conducted in accordance with approved animal protocols.
# Total lesion area and necrotic area analysis were carried out on hematoxylin and eosin (H&E)-stained aortic root lesional cross sections as previously described. Briefly, total lesion area (from internal elastic lamina to the lumen) and acellular/anuclear areas (negative for hematoxylin-positive nuclei) per cross section were quantified by taking the average of 6 sections spaced 30 μm apart beginning at the base of the aortic root. Necrotic areas were defined as anuclear areas based on absence of hematoxylin staining. Collagen staining was performed using picrosirius red as per the manufacturer’s instructions (Polysciences Inc.), and fibrous cap thickness was quantified from 3 distinct regions of the plaque and scored per lesion size as previously described. For immunofluorescence staining, frozen sections were fixed in cold acetone for 10 minutes. After blocking for 1 hour in serum-free protein blocking buffer (DAKO, catalog X0909), sections were incubated overnight at 4°C with anti–phospho-hsp25 (CST, 1:200), anti-Mac2 (1:10,000), and smooth-muscle α actin (SMαA, 1:150) antibodies, rinsed with PBS three times, incubated with fluorescently-labeled secondary antibodies for 2 hours, and counterstained with DAPI. Three slides, each with 2 sections, were assessed for each mouse.
# Experimentation was carried out as previously described. In brief, acetone-fixed aortic root sections were incubated with TUNEL (Roche) followed by staining with anti-Mac2 (1:10,000) to label macrophages. Apoptotic cells were then determined to be either macrophage-associated (colocalizing or juxtaposed with macrophages) or free (not associated with macrophages). Data were plotted as a ratio of associated-to free cells, which is a measure of efferocytosis.
# [2] = Pharmacokinetics in CD-1 mice after single oral and intravenous administration; format: in vivo, mouse; conditions: for Clearance (Cl) / Cmax / F (oral bioavailability) / Half-life: CD-1 mice, TBX-1 1 mpk iv and 5 mpk po, TBX-2 1 mpk iv and 3 mpk po; for plasma half-life: mice, intravenous and oral administration
# Experimental: The pharmacokinetics of the compounds were evaluated in CD-1 mice by single oral and intravenous routes of drug administration. The mice were fasted overnight before oral-gavage dosing of the compounds. The solutions used for PK studies were prepared by dissolving the compounds in 5% Solutol HS 15 in water. Following oral or intravenous administration of compounds, blood samples were collected at 0.08, 0.25, 0.5, 1, 2, 4, 6, 8, 12, and 24 h after dosing. Blood samples were centrifuged to separate plasma, and compound concentrations were determined by LC-MS. Dosing was well tolerated following oral and intravenous administration of both compounds, and no abnormal behavior was observed.
# WD-fed Ldlr-/- mice = test: Metabolism, plasma lipids, blood cells and tolerability in WD-fed Ldlr-/- mice with established atherosclerosis; format: in vivo, mouse; conditions: ~30 mg/kg body weight per day in WD for 6 weeks; for blood leukocyte (total white blood cell) count / blood monocyte count: versus control
# Experimental: as §1
# Total plasma cholesterol and triglyceride levels were measured using commercially available kits (Wako Diagnostics). Plasma lipoproteins were analyzed by running 200 μl of pooled plasma onto a fast protein liquid chromatography system consisting of 2 Superose 6 columns connected in series (Amersham Pharmacia Biotech) as described previously.
# hMK2 = hMK2 (Homo sapiens, UniProt P49137); test: hMK2 inhibition; format: biochemical
# Chain of hMK2 (P49137 whole entry): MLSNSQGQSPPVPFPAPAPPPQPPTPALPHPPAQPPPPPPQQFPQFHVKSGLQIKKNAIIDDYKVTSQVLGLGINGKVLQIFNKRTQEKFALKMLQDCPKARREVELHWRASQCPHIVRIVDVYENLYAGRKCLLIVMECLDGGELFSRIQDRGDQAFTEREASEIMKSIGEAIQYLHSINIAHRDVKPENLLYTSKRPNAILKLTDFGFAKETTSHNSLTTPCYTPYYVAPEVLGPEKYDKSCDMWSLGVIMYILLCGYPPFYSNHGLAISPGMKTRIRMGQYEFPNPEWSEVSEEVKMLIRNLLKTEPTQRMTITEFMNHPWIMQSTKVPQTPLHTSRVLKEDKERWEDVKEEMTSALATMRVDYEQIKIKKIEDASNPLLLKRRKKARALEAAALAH
# [3] = test system: MK2 activity (phospho-hsp25); test: Phospho-hsp25 (MK2 substrate) in liver and aortic root lesions of WD-fed Ldlr-/- mice; format: in vivo, mouse; conditions: ~30 mg/kg body weight per day in WD for 6 weeks
# Experimental: Eight-week-old male Ldlr^-/- mice on the C57BL/6J background were purchased from Jackson Laboratory (stock # 002207) and fed a Western-type Diet (WD) for 16 weeks (Envigo, TD.88137; 21.2% fat, 0.2% cholesterol, 48.5% carbohydrate, and 17.3% protein by weight). Between weeks 10–16 of feeding, the WD of the experimental group was supplemented with TBX-1 or TBX-2 (600 mg/kg diet) to achieve a dose of ∼30 mg/kg body weight per day, whereas control mice remained on regular WD. The study included four separate cohorts, each comprised of 5 to 10 mice per group. The mice were randomly assigned to the different cohorts. Fasting blood glucose was measured in mice that were fasted for 5 h, with free access to water, using a glucose meter. […] Plasma insulin levels were measured in mice that were fasted for 5 h using an ultra-sensitive mouse insulin ELISA kit (Crystal Chem). […]
# Total lesion area and necrotic area analysis were carried out on hematoxylin and eosin (H&E)-stained aortic root lesional cross sections as previously described. Briefly, total lesion area (from internal elastic lamina to the lumen) and acellular/anuclear areas (negative for hematoxylin-positive nuclei) per cross section were quantified by taking the average of 6 sections spaced 30 μm apart beginning at the base of the aortic root. […] Three slides, each with 2 sections, were assessed for each mouse. […]
# [4] = test system: forskolin-induced G6pc mRNA; test: Forskolin-induced G6pc mRNA in primary mouse hepatocytes (RT-qPCR); format: cell-based; conditions: TBX-1 1 h, then TBX-1 and forskolin 4 h in serum-free media
# Experimental: Primary mouse hepatocytes were isolated from 8- to 12-week-old mice as described previously and cultured in media containing Dulbecco’s Modified Eagle’s Medium (DMEM) (Corning, #10-013-CV), 10% (vol/vol) heat-inactivated FBS, and 1X penicillin-streptomycin. After overnight incubation, the cells were washed twice with PBS, treated with the indicated concentrations of TBX-1 for 1 h, followed by treatment with TBX-1 and forskolin for 4 h in FBS-free media.
# Immunoblot and quantitative RT-PCR (RT-qPCR) assays were conducted as previously described. […]
# Densitometric quantification of the data are shown in the bar graphs (n = 5-6 mice/group; mean ± SEM, p = 0.003, p = 0.001 and p = 0.02, respectively).
# S2 Fig. Blood leukocyte and monocyte counts are similar between control and MK2 inhibitor–treated mice. […] Whole blood was analyzed for the number of total white blood cells (A) and monocytes (B) from a randomly selected subset of TBX-1–treated Ldlr-/- mice (n = 19 mice/group; mean ± SEM). […]
# S3 Fig. Lesional collagen content is increased, whereas macrophage and smooth muscle cell numbers are similar between control and MK2 inhibitor–treated mice. […] Picrosirius red staining was quantified, and collagen content is expressed as percent of total lesion area (n = 7-10 mice/group; mean ± SEM, p = 0.009 and p = 0.03, respectively). […]
smiles,measurement,setting,value
CN(C)C[C@H]1CC(=O)N(c2ccc3c(c2)Cn2cc(-c4ccc(C#N)cc4)cc2-c2nccn2-3)C1 [TBX-2],total necrotic area,[1],significantly reduced
same,collagen content of the lesions,[1],significantly increased
same,fibrous-cap thickness,[1],significantly increased
same,Clearance (Cl),[2],0.732 L/h/kg
same,Cmax,[2],296 nM
same,F (oral bioavailability),[2],89.1%
same,Half-life,[2],3.1 h
same,plasma half-life,[2],3.1 h
same,blood leukocyte (total white blood cell) count,WD-fed Ldlr-/- mice,similar
same,blood monocyte count,WD-fed Ldlr-/- mice,similar
same,LDL-cholesterol (fast protein liquid chromatography of plasma),WD-fed Ldlr-/- mice,reduced
same,VLDL-cholesterol (fast protein liquid chromatography of plasma),WD-fed Ldlr-/- mice,reduced
same,IC50,hMK2,0.019 µM
CN(C)[C@@H]1CCN(c2ccc3c(c2)Cn2cc(-c4ccc(C#N)cc4)cc2-c2nncn2-3)C1 [TBX-1],phospho-hsp25 levels in atherosclerotic lesions,"[3]; aortic root sections, MFI within Mac2+ area",significantly reduced
same,phosphorylation of hsp25 in liver,"[3]; liver extracts, immunoblot",efficiently reduced
same,total necrotic area,[1],significantly reduced
same,collagen content of the lesions,[1],significantly increased
same,fibrous-cap thickness,[1],significantly increased
same,forskolin-induced G6pc mRNA,[4],inhibited forskolin-induced G6pc mRNA in a dose-dependent manner
same,Clearance (Cl),[2],1.49 L/h/kg
same,Cmax,[2],58 nM
same,F (oral bioavailability),[2],20.0%
same,Half-life,[2],2.7 h
same,plasma half-life,[2],2.7 h
same,blood leukocyte (total white blood cell) count,WD-fed Ldlr-/- mice,similar
same,blood monocyte count,WD-fed Ldlr-/- mice,similar
same,LDL-cholesterol (fast protein liquid chromatography of plasma),WD-fed Ldlr-/- mice,reduced
same,VLDL-cholesterol (fast protein liquid chromatography of plasma),WD-fed Ldlr-/- mice,reduced
same,IC50,hMK2,0.067 µM
